Structures are written as SMILES.

One test addresses T1, PD-1/PD-L1 interaction (Homo sapiens, UniProt Q9NZQ7).
T1 construct: expressed in transfected cells; host or cells: CHO cells (aAPC-PD-L1) co-cultured with Jurkat cells overexpressing PD-1 and an NFAT-luciferase reporter
Kind of test: PD-1/PD-L1 NFAT reporter co-culture assay. It is filed as cell-based. Particulars: Jurkat PD-1 NFAT-luciferase cells co-cultured with aAPC-PD-L1 CHO cells, 6 hrs at 37° C.; read-out: EC50 NFAT Luciferase. The method in brief: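 Restoration of TCR-driven NFAT luciferase signal: 6 h, 37 °C co-culture of PD-1 Jurkat reporter cells (pre-mixed with compound) on overnight-seeded PD-L1/anti-CD3 CHO monolayer. ONE-Glo luminescence; dose-response fitted to four-parameter equation for EC50.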

Another test concerns the target PD-1/PD-L1 (Homo sapiens, UniProt Q9NZQ7). Kind of test: PD-1/PD-L1 biochemical protein-protein interaction assay (ALPHA). As to conditions: 0.3 nM His tagged PD-L1, 2.5 nM biotinylated Fc-PD-1, 60 minutes at 25° C., read-out: IC50 PD-L1-PD-1 Alpha IC50-mono PD-L1-fcP-D1. It is filed as binding. The method in brief:
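Extracellular-domain binding of His-tagged PD-L1 (0.3 nM final) to biotinylated Fc-PD-1 (2.5 nM final) was measured by ALPHA in 25 mM Hepes pH 7.4, 150 mM NaCl, 3.4 mM EDTA, 0.005% Tween 20, 0.01% BSA. After 60 min at 25° C, anti-His acceptor and streptavidin donor beads were added; IC50 from four-parameter fits.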

Chain of PD-1/PD-L1 (Q9NZQ7 19-238 limits assumed): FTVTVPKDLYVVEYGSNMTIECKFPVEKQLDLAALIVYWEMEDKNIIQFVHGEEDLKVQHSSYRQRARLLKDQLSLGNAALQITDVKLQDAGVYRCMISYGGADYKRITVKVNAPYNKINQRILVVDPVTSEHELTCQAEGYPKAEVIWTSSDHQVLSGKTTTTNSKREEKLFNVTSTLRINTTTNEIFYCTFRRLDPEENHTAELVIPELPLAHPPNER
T1 sequence (Q9NZQ7 19-290): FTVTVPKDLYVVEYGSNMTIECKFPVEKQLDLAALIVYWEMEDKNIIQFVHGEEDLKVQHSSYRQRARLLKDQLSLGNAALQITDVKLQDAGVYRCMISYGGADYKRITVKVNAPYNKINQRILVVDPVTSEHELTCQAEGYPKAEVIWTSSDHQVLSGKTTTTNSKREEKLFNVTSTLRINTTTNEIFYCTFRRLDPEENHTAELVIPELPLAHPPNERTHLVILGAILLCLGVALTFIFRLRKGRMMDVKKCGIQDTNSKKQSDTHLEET

Regarding `COc1nc(OCc2cccc(-c3cccc(COc4ccc(CNC[C@H](C)O)c(OC)n4)c3C)c2C)ccc1CNC[C@H](C)O` [Example 23, (2S,2′S)-1,1′-((((((2,2′-dimethyl-[1,1′-biphenyl]-3,3′-diyl)bis(methylene))bis(oxy))bis(2-methoxypyridine-6,3-diyl))bis(methylene))bis(azanediyl))bis(propan-2-ol)], the EC50 on PD-1/PD-L1 interaction was no less than 50000 nM. The IC50 at PD-1/PD-L1 amounted to 40.6 nM.
For `Cc1c(COc2cc(OCc3nc4ccccc4[nH]3)c(CNC[C@@H](O)CC(=O)O)cc2Cl)cccc1-c1cccc(COc2cc(OCc3nc4ccccc4[nH]3)c(CNC[C@@H](O)CC(=O)O)cc2Cl)c1C` [Example 273, (3S,3′S)-4,4′-((((((2,2′-dimethyl-[1,1′-biphenyl]-3,3′-diyl)bis(methylene))bis(oxy))bis(2-((1H-benzo[d]imidazol-2-yl)methoxy)-5-chloro-4,1-phenylene))bis(methylene))bis(azanediyl))bis(3-hydroxybutanoic acid)], the EC50 at PD-1/PD-L1 interaction is no less than 50000 nM. Besides, at PD-1/PD-L1, the IC50 amounted to 200 nM.
`Cc1c(COc2cc(OCc3cncc(C#N)c3)c(CNCCO)cc2Cl)cccc1-c1cccc(COc2ccc(CNCCO)cc2C(F)(F)F)c1C` [Example 204, 5-((4-Chloro-2-(((2-hydroxyethyl)amino)methyl)-5-((3′-((4-(((2-hydroxyethyl)amino)methyl)-2-(trifluoromethyl)phenoxy)methyl)-2,2′-dimethyl-[1,1′-biphenyl]-3-yl)methoxy)phenoxy)methyl)nicotinonitrile]: at PD-1/PD-L1 interaction, the EC50 came to 927 nM. Also, the IC50 on PD-1/PD-L1 turned out to be 25.7 nM.
Take `COc1nc(OCc2cccc(-c3cccc(COc4ccc(CNCC(O)C(F)(F)C(=O)O)c(OC)n4)c3C)c2C)ccc1CNCC(O)C(F)(F)C(=O)O` (stereo not shown) [Example 84, 4,4′-((((((2,2′-dimethyl-[1,1′-biphenyl]-3,3′-diyl)bis(methylene))bis(oxy))bis(2-methoxypyridine-6,3-diyl))bis(methylene))bis(azanediyl))bis(2,2-difluoro-3-hydroxybutanoic acid)]: the concentration for a half-maximal effect (EC50) at PD-1/PD-L1 interaction is 10000 nM. Moreover, the IC50 at PD-1/PD-L1 turned out to be 0.9 nM.
In the same order, the values of `Cc1cc(OCc2cccc(-c3cccc(COc4cc(C)c(CNC[C@@H](O)CC(=O)O)c(OCc5cncc(C#N)c5)c4)c3C)c2C)cc(OCc2cncc(C#N)c2)c1CNC[C@@H](O)CC(=O)O` [Example 246, (3S,3′S)-4,4′-((((((2,2′-dimethyl-[1,1′-biphenyl]-3,3′-diyl)bis(methylene))bis(oxy))bis(2-((5-cyanopyridin-3-yl)methoxy)-6-methyl-4,1-phenylene))bis(methylene))bis(azanediyl))bis(3-hydroxybutanoic acid)] are 1200 nM and 1 nM.
With `Cc1c(COc2cc(OCc3cncc(C#N)c3)c(CNC[C@@H](O)CC(=O)O)cc2Cl)cccc1-c1cccc(-c2ccc(OCCNC[C@@H](O)CC(=O)O)cc2Cl)c1C` [Example 315, (S)-4-((4-((4″-(2-(((S)-3-carboxy-2-hydroxypropyl)amino)ethoxy)-2″-chloro-2,2′-dimethyl-[1,1′:3′,1″-terphenyl]-3-yl)methoxy)-5-chloro-2-((5-cyanopyridin-3-yl)methoxy)benzyl)amino)-3-hydroxybutanoic acid], the EC50 at PD-1/PD-L1 interaction was 1250 nM. Moreover, the IC50 on PD-1/PD-L1 is 0.242 nM.
Take `CNC(=O)COc1nc(O[C@H]2CCc3c(-c4cccc(-c5ccc(OCCNC[C@@H](O)CC(=O)O)cc5)c4C)cccc32)ccc1CNC[C@@H](O)CC(=O)O` [Example 756]: the EC50 on PD-1/PD-L1 interaction amounted to 6590 nM. Besides, the IC50 on PD-1/PD-L1 worked out at 1.16 nM.
Turning to `COc1nc(OCc2cccc(-c3cccc(COc4ccc(CNC[C@H](O)CC(=O)O)c(OC)n4)c3Cl)c2Cl)ccc1CNC[C@H](O)CC(=O)O` [Example 188, (3R,3′R)-4,4′-((((((2,2′-Dichloro-[1,1′-biphenyl]-3,3′-diyl)bis(methylene))bis(oxy))bis(2-methoxypyridine-6,3-diyl))bis(methylene))bis(azanediyl))bis(3-hydroxybutanoic acid)], the EC50 on PD-1/PD-L1 interaction was 1550 nM. In addition, the IC50 at PD-1/PD-L1 is 0.3 nM.
On the same counts, the results for `Cc1c(COc2cc(OCc3cncc(C#N)c3)c(CNCc3nnn[nH]3)cc2Cl)cccc1-c1cccc(COc2cc(OCc3cncc(C#N)c3)c(CNCc3nnn[nH]3)cc2Cl)c1C` [Example 163, 5,5′-((((((2,2′-dimethyl-[1,1′-biphenyl]-3,3′-diyl)bis(methylene))bis(oxy))bis(6-((((1H-tetrazol-5-yl)methyl)amino)methyl)-4-chloro-3,1-phenylene))bis(oxy))bis(methylene))dinicotinonitrile] are 343 nM and 0.6 nM.
Consider `C=Cc1cc(CNC[C@@H](O)CC(=O)O)c(OC)nc1OCc1cccc(-c2cccc(COc3nc(OC)c(CNC[C@@H](O)CC(=O)O)cc3C=C)c2C)c1C` [Example 120, (3S,3′S)-4,4′-((((((2,2′-dimethyl-[1,1′-biphenyl]-3,3′-diyl)bis(methylene))bis(oxy))bis(2-methoxy-5-vinylpyridine-6,3-diyl))bis(methylene))bis(azanediyl))bis(3-hydroxybutanoic acid)], for which the EC50 at PD-1/PD-L1 interaction turned out to be 1300 nM. In addition, the IC50 at PD-1/PD-L1 amounted to 2 nM.
In the same order, the values of `COc1ccc(COc2nc(OCc3cccc(-c4cccc(COc5nc(OCc6ccc(OC)nc6)c(CNC[C@@H](O)CC(=O)O)cc5Br)c4C)c3C)c(Br)cc2CNC[C@@H](O)CC(=O)O)cn1` [Example 253, (3S,3′S)-4,4′-((((((2,2′-dimethyl-[1,1′-biphenyl]-3,3′-diyl)bis(methylene))bis(oxy))bis(5-bromo-2-((6-methoxypyridin-3-yl)methoxy)pyridine-6,3-diyl))bis(methylene))bis(azanediyl))bis(3-hydroxybutanoic acid)] are 304 nM and 4.6 nM.
On the same counts, the results for `Cc1c(COc2cc(OCc3cncc(C#N)c3)c(CNC[C@@H](O)C(=O)O)cc2Cl)cccc1-c1cccc(COc2cc(OCc3cncc(C#N)c3)c(CNC[C@@H](O)C(=O)O)cc2Cl)c1C` [Example 161, (2R,2′R)-3,3′-((((((2,2′-dimethyl-[1,1′-biphenyl]-3,3′-diyl)bis(methylene))bis(oxy))bis(5-chloro-2-((5-cyanopyridin-3-yl)methoxy)-4,1-phenylene))bis(methylene))bis(azanediyl))bis(2-hydroxypropanoic acid)] are 310 nM and 2.8 nM.
Regarding `Cc1c(COc2cc(OCc3cncc(C#N)c3)c(CNC[C@@H](O)CC(=O)O)cc2Cl)cccc1-c1cccc(-c2ccc3ncnc(NCCO)c3c2)c1C` [Example 337, (S)-4-((5-chloro-2-((5-cyanopyridin-3-yl)methoxy)-4-((3′-(4-((2-hydroxyethyl)amino)quinazolin-6-yl)-2,2′-dimethyl-[1,1′-biphenyl]-3-yl)methoxy)benzyl)amino)-3-hydroxybutanoic acid], the EC50 at PD-1/PD-L1 interaction turned out to be 1920 nM. The IC50 on PD-1/PD-L1 came to 0.287 nM.
For `Cc1c(COc2nc(OCC(F)(F)F)c(CNC[C@@H](O)CC(=O)O)cc2Br)cccc1-c1cccc(COc2nc(OCC(F)(F)F)c(CNC[C@@H](O)CC(=O)O)cc2Br)c1C` [Example 154, (3S,3′S)-4,4′-((((((2,2′-dimethyl-[1,1′-biphenyl]-3,3′-diyl)bis(methylene))bis(oxy))bis(5-bromo-2-(2,2,2-trifluoroethoxy)pyridine-6,3-diyl))bis(methylene))bis(azanediyl))bis(3-hydroxybutanoic acid)], the EC50 on PD-1/PD-L1 interaction was no less than 50000 nM. The IC50 at PD-1/PD-L1 stood at 3.8 nM.
On to `Cc1c(COc2ccc(CNC[C@@H](O)CC(=O)O)cc2C#N)cccc1-c1cccc(COc2ccc(CNC[C@@H](O)CC(=O)O)cc2C#N)c1C` [Example 177, (3S,3′S)-4,4′-((((((2,2′-dimethyl-[1,1′-biphenyl]-3,3′-diyl)bis(methylene))bis(oxy))bis(3-cyano-4,1-phenylene))bis(methylene))bis(azanediyl))bis(3-hydroxybutanoic acid)], for which the EC50 at PD-1/PD-L1 interaction amounted to 20600 nM. Moreover, at PD-1/PD-L1, the IC50 was determined as 0.1 nM.
On to `Cc1c(COc2cc(OCc3cncc(C#N)c3)c(CNC[C@@H](F)C(C)(C)O)cc2Cl)cccc1-c1cccc(COc2cc(OCc3cncc(C#N)c3)c(CNC[C@@H](F)C(C)(C)O)cc2Cl)c1C` [Example 276, 5,5′-((((((2,2′-dimethyl-[1,1′-biphenyl]-3,3′-diyl)bis(methylene))bis(oxy))bis(4-chloro-6-((((R)-2-fluoro-3-hydroxy-3-methylbutyl)amino)methyl)-3,1-phenylene))bis(oxy))bis(methylene))dinicotinonitrile], for which the EC50 on PD-1/PD-L1 interaction amounted to 2050 nM. Besides, the IC50 at PD-1/PD-L1 was determined as 77.8 nM.
For `Cc1c(COc2cc(OCc3cc(C#N)cc(C#N)c3)c(CNC[C@@H](O)CC(=O)O)cc2Cl)cccc1-c1cccc(COc2cc(OCc3cc(C#N)cc(C#N)c3)c(CNC[C@@H](O)CC(=O)O)cc2Cl)c1C` [Example 220, (3S,3′S)-4,4′-((((((2,2′-dimethyl-[1,1′-biphenyl]-3,3′-diyl)bis(methylene))bis(oxy))bis(5-chloro-2-((3,5-dicyanobenzyl)oxy)-4,1-phenylene))bis(methylene))bis(azanediyl))bis(3-hydroxybutanoic acid)], the EC50 at PD-1/PD-L1 interaction was found to be 177 nM. Besides, the IC50 on PD-1/PD-L1 came out at 2 nM.

The values are drawn from patent US12590062B2, “PD-1/PD-L1 inhibitors” (Gilead Sciences, Inc., priority 2017, dated 2026).
